Laboratory results published in patent publication US9930893B2, “Inhibitors of DXP synthase and methods of use thereof” (The Johns Hopkins University, priority 2014, dated 2018).
≈ marks a conversion by molar mass, not a printed value. Where “and” joins values, the source holds several entries; their conditions need not be identical. Equal values may be shown once. Read-outs that look alike come from different tables or passages of the source.

Columns and labels:
[1] = test system: wild-type K-12 E. coli (ATCC: MG1655); test: Antimicrobial activity against E. coli K-12 grown in CAMHB; format: cell-based; conditions: Escherichia coli, MG1655, 16 h, read-out: minimum inhibitory concentration (MIC90)
Description: FIG. 7A and FIG. 7B are charts showing representative growth curves are shown for BAP (FIG. 7A) and BnAP (FIG. 7B). Alkylacetylphosphonates exert dose-dependent delay in E. coli K-12 (MG 1655) growth in CAMHB. Fractional growth (measured at 16 h, blue arrow) was determined relative to the no drug control. Standardized cell cultures were exposed to increasing concentrations of acetylphosphonate, and growth was determined by measuring the OD600 for a period of 16 hours. Acetylphosphonate concentration was varied from 0-5 mM: No drug (light blue), 0.08 mM (orange), 0.16 mM (gray), 0.31 mM (yellow), 0.63 mM (blue), 1.25 mM (green), 2.5 mM (dark blue) and 5.0 mM (brown).
Thus, BnAP, PentAP, HexAP and OctAP, also shown to inhibit DXP synthase, were evaluated for antimicrobial activity against wild-type K-12 E. coli (ATCC: MG1655) grown in rich medium (CAMHB).

[2] = molecular target: T1, Porcine pyruvate dehydrogenase (PDH E1 subunit) (Sus scrofa, UniProt P29804); test: Inhibition of PDH by acetylphosphonates; format: biochemical; conditions: Ki^PDH
T1 construct: Ki^PDH; μM); Ki^PDH
T1 sequence (P29804 1-390): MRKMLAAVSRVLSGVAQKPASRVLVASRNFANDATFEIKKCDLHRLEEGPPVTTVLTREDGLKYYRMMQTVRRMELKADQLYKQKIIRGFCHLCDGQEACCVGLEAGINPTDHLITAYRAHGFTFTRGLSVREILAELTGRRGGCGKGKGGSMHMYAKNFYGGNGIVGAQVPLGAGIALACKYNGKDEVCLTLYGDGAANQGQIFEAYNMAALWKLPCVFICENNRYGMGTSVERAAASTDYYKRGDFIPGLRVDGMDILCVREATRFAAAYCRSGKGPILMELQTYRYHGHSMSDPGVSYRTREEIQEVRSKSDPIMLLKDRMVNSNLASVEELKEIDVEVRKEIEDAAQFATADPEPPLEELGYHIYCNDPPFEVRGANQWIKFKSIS
Description: FIG. 6A, FIG. 6B, and FIG. 6C are charts showing Competitive inhibition of procine PDH E1 subunit by PentAP (FIG. 6A), HexAP (FIG. 6B) and OctAP (FIG. 6C). Inhibition assays were performed as previously described^[18]. Pyruvate concentration was varied from 12.5-250 μM and acetylphosphonate concentration was varied: 0 μM (∘), 250 μM (PentAP) or 200 μM (HexAP and OctAP) (●), 500 μM (□) and 1000 μM (▪). Experiments were performed in triplicate, and data were subjected to non-linear regression analysis for Ki determinations (GraphPad Prism). Representative Lineweaver-Burk plots (GraFit from Erithacus Software) are shown for PentAP (FIG. 6A), HexAP (FIG. 6B) and OctAP (FIG. […]) to illustrate the competitive inhibition mode with respect to pyruvate.
Pyruvate dehydrogenase activity was measured spectrophotometrically as previously reported ^[38] by monitoring absorbance changes at 340 nm due to reduction of NAD^+ by PDH. Reaction mixtures contained 100 mM HEPES (pH 8.0), 1 mg/mL BSA, 0.2 mM ThDP, 0.1 mM coenzyme A, 1 mM MgCl2, 2 mM cysteine, 0.3 mM tris(2-carboxyethyl)phosphine (TCEP). The reaction was initiated with enzyme (0.01 units/ml) and activity was monitored at 30° C. For inhibition studies, reaction mixtures (described above) including BnAP (0.5, 1, 2.25 mM) were pre-incubated at 30° C. for 5 minutes. Initial rates were measured immediately after reactions were initiated by addition of PDH (0.01 units/ml). Double reciprocal analysis of data was carried out using GraFit version 7 from Erithacus Software.

E. coli DXP synthase = molecular target: T2, E. coli DXP synthase (Escherichia coli, UniProt P77488); test: biochemical
T2 construct: made in house
Description: FIG. 4A, FIG. 4B, and FIG. 4C are charts showing competitive inhibition of DXP synthase by pentylacetylphosphonate (PentAP; FIG. 4A), hexylacetylphosphonate (HexAP; FIG. 4B), and octylacetyl phosphonate (OctAP; FIG. 4C). Inhibition assays were performed as previously described^[18], [40]). […] Pyruvate concentration was varied from 12-240 μM and acetylphosphonate concentration was varied: 0 μM (∘), 10 μM (●), 25 μM (□) and 50 μM (▪). Experiments were performed in triplicate, and data were subjected to non-linear regression analysis for Ki determinations (GraphPad Prism). Representative Lineweaver-Burk plots (GraFit from Erithacus Software) are shown for PentAP (FIG. 4A), HexAP (FIG. 4B) and OctAP (FIG. 4C) to illustrate the competitive inhibition mode with respect to pyruvate.
Inhibition of DXP synthase was measured as previously described^[13], [18]. […] Acetylphosphonate concentration was varied from 0 to 250 μM. […] Experiments were performed in triplicate for BAP and in duplicate for iPrAP
In order to evaluate the inhibitory activity of BnAP against DXP synthase, a continuous spectrophotometric coupled assay was used to measure formation of DXP by monitoring IspC consumption of NADPH (340 nm). ^[2] DXP synthase reaction mixtures (previously described) including BnAP (15, 30, and 60 μM), IspC (1 μM) and NADPH (100 μM) were pre-incubated at 37° C. for 5 minutes. Initial rates were measured after the reaction was initiated by the addition of DXP synthase. Inhibition of the coupling enzyme (IspC) by BnAP was not observed up to 1.5 mM. Experiments were performed in triplicate. Double reciprocal analysis of data was carried out using GraFit version 7 from Erithacus Software.

[3] = molecular target: T3, E. coli DXP synthase (DXPS) (Escherichia coli, UniProt P77488); format: biochemical; conditions: for kcat: acceptor substrate turnover
T3 construct: made in house
T3 sequence (P77488 1-620): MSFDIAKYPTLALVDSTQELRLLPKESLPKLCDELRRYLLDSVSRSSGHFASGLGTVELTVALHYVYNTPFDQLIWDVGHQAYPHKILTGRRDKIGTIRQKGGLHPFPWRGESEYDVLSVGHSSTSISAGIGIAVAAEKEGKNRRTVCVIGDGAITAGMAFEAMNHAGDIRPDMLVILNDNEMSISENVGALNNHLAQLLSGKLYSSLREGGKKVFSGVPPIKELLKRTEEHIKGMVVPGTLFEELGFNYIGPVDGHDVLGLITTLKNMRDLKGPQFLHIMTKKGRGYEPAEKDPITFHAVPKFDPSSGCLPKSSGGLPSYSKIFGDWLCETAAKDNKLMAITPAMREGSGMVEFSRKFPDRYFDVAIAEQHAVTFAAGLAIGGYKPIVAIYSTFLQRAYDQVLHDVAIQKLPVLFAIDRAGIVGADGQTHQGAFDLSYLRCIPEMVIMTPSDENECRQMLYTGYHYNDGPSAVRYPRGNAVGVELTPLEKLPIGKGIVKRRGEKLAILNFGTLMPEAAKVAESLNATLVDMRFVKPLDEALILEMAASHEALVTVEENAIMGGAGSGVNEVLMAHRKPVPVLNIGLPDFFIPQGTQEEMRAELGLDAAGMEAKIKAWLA
Description: Reaction mixtures containing 100 mM HEPES, pH 8.0, 2 mM MgCl2, 5 mM NaCl, 1 mM ThDP, 1 mg/mL BSA, 10-20 mM pyruvate, 10% DMSO, 0.5 mM 5 mM nitroso substrate were pre-incubated at 37° C. for 5 min. […] Aliquots of enzymatic mixture were removed at various time intervals and quenched into an equal volume of cold methanol. Quenched mixtures were incubated on ice for 20 minutes. Precipitated proteins were removed by centrifugation, and the supernatant was analyzed by HPLC with UV detection using the following conditions: Flow rate=3 mL/min; Solvent A: 100 mM NH4OAc, pH 4.6; Solvent B: acetonitrile; Method: 0-100% B over 10 min. New products formed were extracted from the supernatant using ethyl acetate (3×). […] Products were subsequently characterized by mass spectrometry.
Reaction mixtures containing 100 mM HEPES, pH 8.0, 2 mM MgCl2, 5 mM NaCl, 1 mM ThDP, 1 mg/mL BSA, 10-20 mM pyruvate, 10% DMSO v/v, and 10-300 μM nitroso substrate were pre-incubated at 37° C. for 5 min. […] Substrate concentration as a function of time was determined from absorbance values using Beer's Law. Initial reaction rates were determined from the linear range of the reaction progress curve, usually within 1-3 min. Data analysis to determine kcat and Km for each alternative substrate was carried out using GraFit version 7 from Erithacus Software.

DXP synthase = molecular target: T4, DXP synthase (Escherichia coli, UniProt P77488); test: Inhibition of DXP formation by nitroso substrates (HPLC-based assay); format: biochemical, E. coli; conditions: 30 μM D-GAP, 80 μM pyruvate, 37° C.; average ± SEM
T4 construct: made in house
T4 sequence (P77488 1-620): T3 sequence (P77488 1-620)
Description: Enzyme reactions were initiated by addition of 0.1 μM DXP synthase. Aliquots (150 μL) of the enzymatic mixture were removed between 0.5 and 3 minutes and quenched into ice-cold methanol (150 μL). Precipitated protein was removed by centrifugation, and the supernatant was diluted in an equal volume of water. The nitroso substrate was removed by extraction into acetonitrile (3×), using a previously described freeze-extraction technique. ^[32] […] The derivatization mixtures were analyzed by HPLC as previously described. ^[19] To determine initial reaction rates in the presence of varying inhibitor concentration, the D,L-GAP and DXP hydrazone HPLC peak areas were measured, and the product concentration was determined as a percent of total peak area and plotted against reaction time. Initial rates GraFit version 7 from Erithacus Software was utilized to generate IC50 curves.

porcine PDH E1 subunit = format: biochemical
Description: Reaction mixtures containing 100 mM HEPES, pH 8.0, 2 mM MgCl2, 5 mM NaCl, 1 mM ThDP, 1 mg/mL BSA, 10-20 mM pyruvate, 10% DMSO v/v, and 10-300 μM nitroso substrate were pre-incubated at 37° C. for 5 min. Enzymatic reactions were initiated by addition of 0.5-2 μM DXP synthase (or 0.1 units/ml PDH) and monitored spectrophotometrically by measuring the rate of disappearance of the nitroso substrate at its corresponding λmax. Substrate concentration as a function of time was determined from absorbance values using Beer's Law. Initial reaction rates were determined from the linear range of the reaction progress curve, usually within 1-3 min. Data analysis to determine kcat and Km for each alternative substrate was carried out using GraFit version 7 from Erithacus Software.

[4] = Ki (DXP synthase), competitive with respect to pyruvate
[5] = Table 4, read-out: In vitro DXP syn IC50
[6] = 10-20 mM pyruvate, pH 8.0, 10% DMSO, 37° C., average ± SEM
[7] = acceptor substrate, 10-20 mM pyruvate, pH 8.0, 10% DMSO, 37° C., average ± SEM

CC(=O)P(=O)(O)OCc1ccccc1 [Compound 1, benzyl acetylphosphonate]
MIC90 [1]: 630 µM (≈ 135 µg/mL)
Ki ([2]; Table 5 (no unit in table; μM)): 880 ± 78 µM
Ki ([2]; competitive with respect to pyruvate): 882 ± 78 µM
Ki (E. coli DXP synthase; [4]): 10.4 ± 1.3 µM
Ki (E. coli DXP synthase; Ki (DXP synthase, with respect to D-GAP), uncompetitive with respect to D-GAP, 200 μM pyruvate): 70 ± 8 µM
Ki (E. coli DXP synthase; Ki^DXPS, Table 5 (no unit in table; μM), vs pyruvate): 10 ± 1 µM

CC(=O)P(=O)(O)OC1Cc2ccccc2C1 [Compound 2]
IC50 (E. coli DXP synthase; [5]): 64.5 µM

COc1cccc(COP(=O)([O-])C(C)=O)c1.[Li+] [Compound 3]
kcat [3, 6]: 0.6 ± 0.12 s⁻¹
Km [3, 7]: 99 ± 16 µM
IC50 (E. coli DXP synthase; [5]): 37.4 µM

CC(=O)P(=O)([O-])OCCc1cccc2ccccc12.[Li+] [Compound 5]
kcat [3, 6]: 0.0183 ± 0.0033 s⁻¹
Km [3, 7]: 41 ± 10 µM
IC50 (E. coli DXP synthase; [5]): 77 µM
Ki (E. coli DXP synthase; Table 4, read-out: In vitro DXP syn Ki): 55 µM

O=Nc1c(O)ccc2cc(Br)ccc12 [Compound 6]
kcat [3, 6]: 0.0333 ± 0.0033 s⁻¹
Km [3, 7]: 24 ± 6 µM

NS(=O)(=O)c1ccc2c(N=O)c(O)ccc2c1 [Compound 7]
kcat [3, 6]: 0.0197 ± 0.00067 s⁻¹
Km [3, 7]: 18 ± 4 µM

COc1ccc2ccc(O)c(N=O)c2c1 [Compound 8]
IC50 (DXP synthase): > 2000 µM
kcat [3, 6]: 0.0217 ± 0.0033 s⁻¹
Km [3, 7]: 63 ± 7 µM

Cc1nn(C(C)C)c(C)c1N=O [Compound 9]
IC50 (DXP synthase): > 2000 µM
kcat [3, 6]: 0.0233 ± 0.0033 s⁻¹
Km [3, 7]: 387 ± 18 µM

O=Nc1ccc(O)c2ncccc12 [Compound 10]
substrate usage by DXP synthase ([3]; in words): did not act as substrate

C=CCOP(=O)(O)C(C)=O [Compound 12]
IC50 (E. coli DXP synthase): 20 µM

O=C[C@H](O)COP(=O)(O)O [D-GAP, D-glyceraldehyde 3-phosphate, reference compound]
kcat [3, 6]: 1.7 ± 0.12 s⁻¹
Km ([3]; pH 8): 28 ± 4 µM

CCCCCCOP(=O)(O)C(C)=O [HexAP, Hexylacetylphosphonate]
MIC90 [1]: 5000 µM (≈ 1040 µg/mL)
Ki ([2]; Table 5 (no unit in table; μM)): 117 ± 9 µM
Ki (E. coli DXP synthase; [4]): 8.9 ± 0.5 µM

O=Nc1ccccc1 [Substrate 1, nitrosobenzene, reference compound]
increase in Km for PDH compared to DXP synthase (porcine PDH E1 subunit): 2.7 fold

CC(=O)P(=O)(O)OC(C)C [iPrAP, Isopropylacetylphosphonate]
IC50 (E. coli DXP synthase; pyruvate 95 μM, D-GAP 56 μM, error 95% Confidence Interval, read-out: IC50 (DXP synthase)): 250 µM and 245 µM
